Holding throughout (assay type): cell-based
The target of assay [1] is T1, RARβ (Homo sapiens, UniProt P10826).
T1 sequence (P10826 1-455): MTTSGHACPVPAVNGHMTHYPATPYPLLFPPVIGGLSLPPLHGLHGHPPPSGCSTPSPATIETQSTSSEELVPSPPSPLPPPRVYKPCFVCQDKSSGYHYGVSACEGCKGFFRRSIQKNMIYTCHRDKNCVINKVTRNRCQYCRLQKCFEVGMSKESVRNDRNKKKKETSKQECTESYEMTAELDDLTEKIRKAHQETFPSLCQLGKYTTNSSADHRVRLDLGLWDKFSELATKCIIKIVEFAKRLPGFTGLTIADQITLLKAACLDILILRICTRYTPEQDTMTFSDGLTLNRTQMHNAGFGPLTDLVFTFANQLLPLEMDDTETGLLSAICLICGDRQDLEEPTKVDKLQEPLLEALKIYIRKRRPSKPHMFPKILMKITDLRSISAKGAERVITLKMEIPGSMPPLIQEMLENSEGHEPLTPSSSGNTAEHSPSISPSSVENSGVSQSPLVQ
Description: RARβ transcriptional assay, antagonist activity. The following applies: in the presence of 0.5 nM TTNPB. How it is done: (§1) Transcriptional assays for RARα, RARβ and RARγ, which measure the antagonist or agonist like activity of the compounds are described in WO 2017/201200 A1 (Thacher, Crowe, Tao and Raheja, Therapeutic compositions containing RAR-alpha antagonists) published on Nov. 23, 2017, which is also incorporated herein by reference. The results obtained in these assays are expressed as EC50 values when measuring agonist activity and IC50 values when measuring antagonist activity in the presence of 0.5 nM TTNPB, a retinoid agonist.

In assay [2] the target is T2, RARα (Homo sapiens, UniProt P10276).
T2 sequence (P10276 1-462): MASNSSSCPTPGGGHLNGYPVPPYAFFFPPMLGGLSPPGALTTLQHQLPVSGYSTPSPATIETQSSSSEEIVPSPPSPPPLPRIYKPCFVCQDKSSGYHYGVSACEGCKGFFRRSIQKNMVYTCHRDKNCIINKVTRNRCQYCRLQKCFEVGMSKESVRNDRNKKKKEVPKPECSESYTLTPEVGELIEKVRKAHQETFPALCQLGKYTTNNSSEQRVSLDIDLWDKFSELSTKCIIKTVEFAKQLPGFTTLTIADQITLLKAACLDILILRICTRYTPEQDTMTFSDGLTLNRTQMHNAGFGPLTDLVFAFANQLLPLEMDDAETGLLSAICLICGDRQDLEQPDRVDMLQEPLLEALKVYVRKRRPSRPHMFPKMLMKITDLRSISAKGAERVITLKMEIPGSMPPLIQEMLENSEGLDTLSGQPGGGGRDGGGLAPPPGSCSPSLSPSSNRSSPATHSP
The assay can be described thus: RARα transcriptional assay, antagonist activity. The following applies: in the presence of 0.5 nM TTNPB. The protocol: as §1

For assay [3], the target named is T2, RARα. The assay can be described thus: RARα transcriptional assay, agonist activity. The following applies: agonist mode. How it is done: as §1
Assay [4] concerns the target T3, RARγ (Homo sapiens, UniProt P13631).
T3 sequence (P13631 1-454): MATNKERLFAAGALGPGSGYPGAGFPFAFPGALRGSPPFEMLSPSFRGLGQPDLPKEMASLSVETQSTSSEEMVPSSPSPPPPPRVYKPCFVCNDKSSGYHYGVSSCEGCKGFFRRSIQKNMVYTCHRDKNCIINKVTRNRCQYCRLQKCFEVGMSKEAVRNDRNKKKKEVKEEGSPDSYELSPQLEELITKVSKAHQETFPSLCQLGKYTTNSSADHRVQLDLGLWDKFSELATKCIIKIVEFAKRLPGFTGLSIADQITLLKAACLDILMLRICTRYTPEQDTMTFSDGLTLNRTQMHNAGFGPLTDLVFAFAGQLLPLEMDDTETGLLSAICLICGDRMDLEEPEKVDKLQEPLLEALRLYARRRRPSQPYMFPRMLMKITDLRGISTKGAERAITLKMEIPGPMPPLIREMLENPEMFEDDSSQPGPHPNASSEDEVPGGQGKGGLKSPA
The assay can be described thus: RARγ transcriptional assay, antagonist activity. The following applies: in the presence of 0.5 nM TTNPB. How it is done:
as §1

Assay [5] deals with T1, RARβ. The assay can be described thus: RARβ transcriptional assay, agonist activity. Particulars: agonist mode. How it is done:
as §1

In assay [6] the target is T3, RARγ. The assay can be described thus: RARγ transcriptional assay, agonist activity. The following applies: agonist mode. The protocol:
as §1

For the compound `CN1CCC(C2=CC(C)(C)Oc3c(Br)cc(C(=O)Nc4ccc(C(=O)O)c(F)c4)cc32)CC1` [Compound 32], the concentration for half-maximal inhibition (IC50) on RARβ [1], on RARα [2] and on RARγ [4] was above 1000 nM throughout. Besides, the EC50 on RARα [3], at RARβ [5] and on RARγ [6] was above 1000 nM in each case.
With `CC(C)C1=CC(C)(C)Oc2c(Br)cc(C(=O)Nc3ccc(C(=O)O)c(F)c3)cc21` [Compound 33], the IC50 at RARβ [1], on RARα [2] and on RARγ [4] was above 1000 nM in each case. Besides, the 50% effective concentration (EC50) (in general, the concentration needed to bring the measured effect to its halfway point) on RARα [3] is below 1 nM; at RARβ [5] it was 11 to 100 nM; at RARγ [6], 101 to 1000 nM.
For `CC1(C)C=C(C2CCOCC2)c2cc(C(=O)Nc3ccc(C(=O)O)c(F)c3)cc(Br)c2O1` [Compound 34], the IC50 (commonly the concentration needed to halve the response being measured) at RARβ [1] was above 1000 nM; at RARα [2], 11 to 100 nM; at RARγ [4], above 1000 nM. Also, the “Antagonist Activity RARα Efficacy” value at RARα [2] is given as “† (†, RARα antagonist efficacy >85%)”. The EC50 at RARα [3], on RARβ [5] and at RARγ [6] was 101 to 1000 nM in each case.
For the compound `CC1CCC(C2=CC(C)(C)Oc3c(Br)cc(C(=O)Nc4ccc(C(=O)O)c(F)c4)cc32)CC1` (stereo not drawn) [Compound 35], the IC50 at RARβ [1] was 11 to 100 nM; on RARα [2], below 1 nM; on RARγ [4], above 1000 nM. Also, on RARα [2], the “Antagonist Activity RARα Efficacy” value is “† (†, RARα antagonist efficacy >85%)”. The EC50 on RARα [3], at RARβ [5] and on RARγ [6] was above 1000 nM each time.
For the compound `CC1(C)C=C([C@H]2CC[C@@H](C)CC2)c2cc(C(=O)Nc3ccc(C(=O)O)c(F)c3)cc(Br)c2O1` [Compound 36], the results for the IC50 on RARβ [1], on RARα [2] and on RARγ [4] were above 1000 nM, below 1 nM and above 1000 nM, respectively. Besides, on RARα [2], the “Antagonist Activity RARα Efficacy” value is “† (†, RARα antagonist efficacy >85%)”. Further, the EC50 on RARα [3], on RARβ [5] and at RARγ [6] was above 1000 nM each time.
As for `CC#CC1=CC(C)(C)Oc2c(Br)cc(C(=O)Nc3ccc(C(=O)O)c(F)c3)cc21` [Compound 37], the IC50 was above 1000 nM at RARβ [1], 1 to 10 nM at RARα [2] and above 1000 nM at RARγ [4]. Further, the EC50 at RARα [3] is 11 to 100 nM; at RARβ [5], 101 to 1000 nM; on RARγ [6] it was above 1000 nM.
On to `CC1(C)CCC(C2=CC(C)(C)Oc3c(Br)cc(C(=O)Nc4ccc(C(=O)O)c(F)c4)cc32)CC1` [Compound 38], for which the IC50 at RARβ [1] is 11 to 100 nM; at RARα [2], below 1 nM; on RARγ [4], 11 to 100 nM. Besides, at RARα [2], the “Antagonist Activity RARα Efficacy” value was “† (†, RARα antagonist efficacy >85%)”. The EC50 on RARα [3], at RARβ [5] and at RARγ [6] was above 1000 nM each time.
For the compound `CC[C@H]1CC[C@H](C2=CC(C)(C)Oc3c(Br)cc(C(=O)Nc4ccc(C(=O)O)c(F)c4)cc32)CC1` [Compound 39], the IC50 at RARβ [1] is 101 to 1000 nM; at RARα [2] it was below 1 nM; on RARγ [4], 101 to 1000 nM. In addition, the “Antagonist Activity RARα Efficacy” value on RARα [2] is reported as “† (†, RARα antagonist efficacy >85%)”. Also, the EC50 on RARα [3], at RARβ [5] and on RARγ [6] was above 1000 nM in each case.
As to `CC[C@H]1CC[C@@H](C2=CC(C)(C)Oc3c(Br)cc(C(=O)Nc4ccc(C(=O)O)c(F)c4)cc32)CC1` [Compound 40], the IC50 on RARβ [1] is above 1000 nM; at RARα [2], below 1 nM; on RARγ [4], above 1000 nM. In addition, on RARα [2], the “Antagonist Activity RARα Efficacy” value is recorded as “† (†, RARα antagonist efficacy >85%)”. The EC50 on RARα [3], on RARβ [5] and on RARγ [6] was above 1000 nM each time.
